Experimental findings from paper PMC9875641, “Ophthalmic Solution of Smart Supramolecular Peptides to Capture Semaphorin 4D against Diabetic Retinopathy” (Advanced Science, 2022) are described below.

In the assay the target is T1, sSema 4D (Homo sapiens, UniProt Q92854).
T1 construct: purchased Novoprotein Ltd. (Suzhou, China)
T1 sequence (Q92854 22-734 limits assumed): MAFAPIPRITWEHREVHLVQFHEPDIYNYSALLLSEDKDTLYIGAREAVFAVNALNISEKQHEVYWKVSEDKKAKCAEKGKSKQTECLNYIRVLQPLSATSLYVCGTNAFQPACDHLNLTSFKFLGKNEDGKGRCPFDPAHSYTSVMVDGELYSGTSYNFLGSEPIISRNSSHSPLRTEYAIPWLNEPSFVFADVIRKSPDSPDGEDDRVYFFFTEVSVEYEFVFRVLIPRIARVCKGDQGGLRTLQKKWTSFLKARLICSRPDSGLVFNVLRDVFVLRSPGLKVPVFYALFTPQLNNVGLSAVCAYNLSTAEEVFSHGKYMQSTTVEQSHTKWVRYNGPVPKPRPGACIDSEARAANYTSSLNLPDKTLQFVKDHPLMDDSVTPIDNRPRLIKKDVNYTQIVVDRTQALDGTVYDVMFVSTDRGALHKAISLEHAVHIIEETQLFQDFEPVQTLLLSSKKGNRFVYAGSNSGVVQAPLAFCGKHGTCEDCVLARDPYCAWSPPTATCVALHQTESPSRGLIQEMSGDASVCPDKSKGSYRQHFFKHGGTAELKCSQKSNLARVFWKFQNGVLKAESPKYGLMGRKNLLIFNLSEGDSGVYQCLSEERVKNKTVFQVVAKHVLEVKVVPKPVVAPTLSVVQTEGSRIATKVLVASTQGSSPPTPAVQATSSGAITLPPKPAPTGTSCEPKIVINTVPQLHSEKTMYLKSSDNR
Nature of the assay: ELISA binding affinity of TPs and SSPs to sSema 4D (and BSA). Here is the method:
To carry out the library screening, we first labeled the sSema4D with fluorescein isothiocyanate isomer (FITC), as shown in Figure 2E. Next, ≈10^6 beads library was incubated with FITC‐labeled sSema4D for 6 hours. The beads were thoroughly washed with DMF, water and methanol. Finally, under the fluorescence microscope, the beads with […] to sSema4D or FITC‐labeled sSema4D through noncovalent bonding were identified in Figure 2F. We selected twelve strongest putative fluorescent beads by physical separation. Subsequently, the corresponding peptides were cleaved off with BrCN from beads and analyzed by automatic Edman sequencing. The structures and sequence of transformable peptides (TPs) were determined and summarized (Figure S2, Supporting Information). TP‐1 to TP‐12 were resynthesized into solid phase and purified by high performance liquid chromatography (HPLC). The binding affinity of TPs toward sSema 4D was measured by enzyme‐linked immunosorbent assay (ELISA) and surface plasmon resonance imaging (SPRi). […] TP‐2 and TP‐7 were selected as the candidate TP binding sSema 4D to construct SSP. Subsequent SSP monomers (SSP‐1, sequence: C16‐FFVLK‐KQKRPRH; SSP‐2 C16‐FFVLK‐KNKAAKG) were synthesized and characterized by HPLC and Matrix‐assisted laser desorption/ionization time‐of‐flight mass spectrometry (MALDI‐TOF‐MS).
(ELISA stands for enzyme-linked immunosorbent assay.)

For “C16‐FFVLK‐KNKAAKG [SSP-2, smart supramolecular peptide, C16‐FFVLK‐KNKAAKG, self-assembling, captures sSema4D]”, the “binding affinity with sSema4D on ELISA, compared with TPs” value is “higher binding affinity compared with TPs”.
For “C16‐FFVLK‐KQKRPRH [SSP-1, smart supramolecular peptide, C16‐FFVLK‐KQKRPRH, self-assembling, captures sSema4D]”, the “binding affinity with sSema4D on ELISA, compared with TPs” value was “higher binding affinity compared with TPs”.
